Test system: 171881-019-R-J1-PDC tumor spheroids, viability
Experiment: Anticancer human tumor 171881-019-R-J1-PDC patient-derived invasive breast carcinoma cell line growth inhibition [GQUAD]
Conditions: spheroids with HUVEC and MSC; for IC50: curve of first compound; for viability, T/C: stronger effect = lower value
Outline: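 Viability of tumor cells grown as complex spheroids with endothelial and stromal cells, exposed to drug combinations. Top concentration at or near clinical Cmax (else 10 microM), diluted in half-log increments.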

[1] = second compound 0.0316 µM, first compound 0.0316 µM
[2] = second compound 0.0316 µM, first compound 0.1 µM
[3] = second compound 0.0316 µM, first compound 0.316 µM
[4] = second compound 0.0316 µM, first compound 1 µM
[5] = second compound 0.0316 µM, first compound 3.16 µM
[6] = second compound 0.0316 µM, first compound 10 µM
[7] = second compound 0.1 µM, first compound 0.0316 µM
[8] = second compound 0.1 µM, first compound 0.1 µM
[9] = second compound 0.1 µM, first compound 0.316 µM
[10] = second compound 0.1 µM, first compound 1 µM
[11] = second compound 0.1 µM, first compound 3.16 µM
[12] = second compound 0.1 µM, first compound 10 µM
[13] = second compound 0.316 µM, first compound 0.0316 µM
[14] = second compound 0.316 µM, first compound 0.1 µM
[15] = second compound 0.316 µM, first compound 0.316 µM
[16] = second compound 0.316 µM, first compound 1 µM
[17] = second compound 0.316 µM, first compound 3.16 µM
[18] = second compound 0.316 µM, first compound 10 µM
[19] = second compound 1 µM, first compound 0.0316 µM
[20] = second compound 1 µM, first compound 0.1 µM
[21] = second compound 1 µM, first compound 0.316 µM
[22] = second compound 1 µM, first compound 1 µM
[23] = second compound 1 µM, first compound 3.16 µM
[24] = second compound 1 µM, first compound 10 µM
[25] = second compound 3.16 µM, first compound 0.0316 µM
[26] = second compound 3.16 µM, first compound 0.1 µM
[27] = second compound 3.16 µM, first compound 0.316 µM
[28] = second compound 3.16 µM, first compound 1 µM
[29] = second compound 3.16 µM, first compound 3.16 µM
[30] = second compound 3.16 µM, first compound 10 µM
[31] = second compound 10 µM, first compound 0.0316 µM
[32] = second compound 10 µM, first compound 0.1 µM
[33] = second compound 10 µM, first compound 0.316 µM
[34] = second compound 10 µM, first compound 1 µM
[35] = second compound 10 µM, first compound 3.16 µM
[36] = second compound 10 µM, first compound 10 µM
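Wherever viability, T/C is given: 100% = DMSO vehicle control viability.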

Work on `CC1COCCN1c1cc(C2(S(C)(=N)=O)CC2)nc(-c2ccnc3[nH]ccc23)n1` (centres undefined) + CN(C)c1ccc(Nc2c3ccc(NC(=O)CCN4CCCC4)cc3nc3cc(NC(=O)CCN4CCCC4)ccc23)cc1 yielded an IC50 (second compound 0.0316 µM) of 1370 nM, an IC50 (second compound 0.1 µM) of 1190 nM and an IC50 (second compound 0.316 µM) of 667 nM. The IC50 (second compound 1 µM) was < 31.6 nM, the IC50 (second compound 3.16 µM) was < 31.6 nM and the IC50 (second compound 10 µM) was < 31.6 nM. For the same compound, the viability, T/C [1] was 97.3%, the viability, T/C [2] was 109% and the viability, T/C [3] was 99.8%. The viability, T/C [4] was 62.6%, the viability, T/C [5] was 15.8% and the viability, T/C [6] was 6.43%. It also gave a viability, T/C [7] of 98.9%, a viability, T/C [8] of 99.1% and a viability, T/C [9] of 81%. The viability, T/C [10] was 59.1%, the viability, T/C [11] was 16.8% and the viability, T/C [12] was 6.7%. The viability, T/C [13] was 77.7%, the viability, T/C [14] was 88% and the viability, T/C [15] was 63%. The viability, T/C [16] was 41.6%, the viability, T/C [17] was 16.7% and the viability, T/C [18] was 4.97%. It also gave a viability, T/C [19] of 26%, a viability, T/C [20] of 13.1% and a viability, T/C [21] of 20.5%. It also gave a viability, T/C [22] of 11.9%, a viability, T/C [23] of 7.12% and a viability, T/C [24] of 2.2%. For the same compound, the viability, T/C [25] was 1.87%, the viability, T/C [26] was 1.5% and the viability, T/C [27] was 1.71%. It also gave a viability, T/C [28] of 0.99%, a viability, T/C [29] of 0.76% and a viability, T/C [30] of 0.35%. For the same compound, the viability, T/C [31] was 0.19%, the viability, T/C [32] was 0.55% and the viability, T/C [33] was 0.48%. The viability, T/C [34] was 0.52%, the viability, T/C [35] was 0.54% and the viability, T/C [36] was 0.25%.
For `COc1ccc([C@@H](O)c2cc(-c3ncnc4cc(N5CCOCC5)ccc34)c(F)cc2Cl)nn1` + CN(C)c1ccc(Nc2c3ccc(NC(=O)CCN4CCCC4)cc3nc3cc(NC(=O)CCN4CCCC4)ccc23)cc1, the IC50 (second compound 0.0316 µM) was 544 nM, the IC50 (second compound 0.1 µM) was 570 nM and the IC50 (second compound 0.316 µM) was 335 nM. For the same compound, the IC50 (second compound 1 µM) was < 31.6 nM, the IC50 (second compound 3.16 µM) was < 31.6 nM and the IC50 (second compound 10 µM) was < 31.6 nM. The viability, T/C [1] was 97.2%, the viability, T/C [2] was 85.8% and the viability, T/C [3] was 62.5%. It also gave a viability, T/C [4] of 37.6%, a viability, T/C [5] of 7.36% and a viability, T/C [6] of 1.57%. The viability, T/C [7] was 94.5%, the viability, T/C [8] was 87% and the viability, T/C [9] was 64.2%. The viability, T/C [10] was 37.5%, the viability, T/C [11] was 7.17% and the viability, T/C [12] was 1.52%. It also gave a viability, T/C [13] of 79.3%, a viability, T/C [14] of 72.5% and a viability, T/C [15] of 52.2%. It also gave a viability, T/C [16] of 18.2%, a viability, T/C [17] of 4.99% and a viability, T/C [18] of 0.9%. For the same compound, the viability, T/C [19] was 27.1%, the viability, T/C [20] was 17.4% and the viability, T/C [21] was 18.6%. The viability, T/C [22] was 4.62%, the viability, T/C [23] was 1.37% and the viability, T/C [24] was 0.46%. For the same compound, the viability, T/C [25] was 1.64%, the viability, T/C [26] was 2.1% and the viability, T/C [27] was 1.49%. It also gave a viability, T/C [28] of 0.45%, a viability, T/C [29] of 0.38% and a viability, T/C [30] of 0.23%. For the same compound, the viability, T/C [31] was 0.4%, the viability, T/C [32] was 0.57% and the viability, T/C [33] was 0.32%. For the same compound, the viability, T/C [34] was 0.19%, the viability, T/C [35] was 0.14% and the viability, T/C [36] was 0.38%.
